Test results published in patent publication EP0791072B1, “PROCESS FOR DETERMINING THE ACTIVITY OF SPECIFIC PHOSPHOTYROSINE PHOSPHATASES AND SPECIFIC EFFECTORS THEREOF IN INTACT CELLS” (Max-Planck-Gesellschaft zur Förderung der Wissenschaften …, priority 1994, dated 1996).

Tests used:
Format in all cases: cell-based, Maus
[1] = test system: PDGF-Rezeptor-gerichtete(n) PTPase(n)
[2] = test system: PDGF-Rezeptor PTK; assay: Inhibition of PDGF-induced receptor autophosphorylation in intact Swiss 3T3 cells (anti-phosphotyrosine immunoblot); details: AG 1296 50 µM, 2 min preincubation, then PDGF-BB 100 ng/ml for 5 min
Source text: (§1) Swiss 3T3 Fibroblasten (Maus) exprimieren PDGFα und PDGFβ-Rezeptoren auf der Zelloberfläche (Hosang et al. (1989)). Die Stimulation der Zellen mit PDGF führt zu einer raschen Autophosphorylierung dieser Rezeptoren an Tyrosinresten. […] Die autophosphorylierten Rezeptoren werden durch PDGF-Rezeptor-gerichtete PTPase(n) rasch dephosphoryliert (Bohmer et al. (1993)). Die Identität der zellulären PTPasen, die diese Reaktion katalysieren, ist nicht bekannt. Ein hochspezifischer Inhibitor für die PDGF-Rezeptor PTK (AG 1296) hemmt deren Aktivität bereits nach sehr kurzer Behandlung der Zellen (2 min) vollständig (Abb. 1). In isolierten Membranen von Swiss 3T3-Zellen beeinflußt der Inhibitor die in den Membranen enthaltenen PTPase(n) für den autophosphorylierten PDGF-Rezeptor in ihrer Aktivität nicht (Abb. 2). Wird der Inhibitor Zellen nach Aktivierung der PDGF-Rezeptor PTK zugesetzt, kann die Dephosphorylierung des PDGF-Rezeptors zeitabhängig verfolgt werden (Abb. 3).

[3] = test system: PDGF-Rezeptor; assay: Time course of PDGF receptor phosphotyrosine content in intact Swiss 3T3 cells, PTK inhibitor added after PDGF stimulation; details: AG 1296 50 µM added after 5 min PDGF stimulation, over incubation time
Source text: as §1
Swiss 3T3-Zellen wurden in serumfreiem Medium mit PDGF (Abb. 3, Bahn 2-6) oder dem entsprechenden Lösungsmittel (Abb. 3, Bahn 1) behandelt. Nach 5-minütiger Stimulation wurde AG 1296 (50 µM, Abb. 3 B) oder entsprechendes Lösungsmittel (DMSO, Abb. 3 A) zugesetzt. […] Diese Abnahme wird durch die Aktivität der PDGF Rezeptor-gerichteten PTPase in den intakten Zellen bewirkt. Eine graphische Auswertung ist in Abb. 4 gezeigt. […]

| Structure (SMILES) | Relative PDGF Rezeptor-gerichtete PTPase-Aktivität (% der Kontrolle) [1] [% der Kontrolle] | PDGF-induzierte Autophosphorylierung des Rezeptors [2] | Phosphotyrosingehalt der PDGF-Rezeptoren [3] |
| --- | --- | --- | --- |
| CNc1ccc2oc(C[C@H]3O[C@@]4(CC[C@H]3C)O[C@H]([C@H](C)C(=O)c3ccc[nH]3)[C@H](C)C[C@H]4C)nc2c1C(=O)O [A 23187, 5-(Methylamino)-2-[[3,9,11-trimethyl-8-[1-methyl-2-oxo-(1H-pyrrol-2-yl)ethyl]-1,7-dioxaspiro[5,5]undec-2-yl]methyl]-4-benoxazolcarbonsäure] | 161 |  |  |
| COc1cc2ncc(-c3ccccc3)nc2cc1OC [AG 1296] |  | vollständig unterdrückt | kontinuierlich ab |
